Tests used:
PI3Kα (p110α/p85α) = PI3Kα (p110α/p85α) (Homo sapiens (Human), UniProt P42336); assay: PI3Kα enzymatic test by measuring the consumption of ATP; format: biochemical
Procedure, shortened: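 ATP consumption read out by KinaseGlo luminescence after a 90 min reaction of 1.7 μg/ml PI3Kα (p110α/p85α) with 2 μM ATP and 50 μM PIP2, buffered at pH 7.5 (Tris, 10 mM MgCl2, 1 mM EGTA, 0.03% Chaps, 1 mM DTT). Threefold dilution series over ≥10 000-fold range yield IC50.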

[1] = biological target: mTOR (human recombinant aa mTOR 1360-2549) (Homo sapiens (Human), UniProt P42345); assay: mTOR enzymatic test by TR-FRET (phosphorylation of GFP-4EBP1); format: biochemical
Chain of mTOR (human recombinant aa mTOR 1360-2549) (P42345 1360-2549): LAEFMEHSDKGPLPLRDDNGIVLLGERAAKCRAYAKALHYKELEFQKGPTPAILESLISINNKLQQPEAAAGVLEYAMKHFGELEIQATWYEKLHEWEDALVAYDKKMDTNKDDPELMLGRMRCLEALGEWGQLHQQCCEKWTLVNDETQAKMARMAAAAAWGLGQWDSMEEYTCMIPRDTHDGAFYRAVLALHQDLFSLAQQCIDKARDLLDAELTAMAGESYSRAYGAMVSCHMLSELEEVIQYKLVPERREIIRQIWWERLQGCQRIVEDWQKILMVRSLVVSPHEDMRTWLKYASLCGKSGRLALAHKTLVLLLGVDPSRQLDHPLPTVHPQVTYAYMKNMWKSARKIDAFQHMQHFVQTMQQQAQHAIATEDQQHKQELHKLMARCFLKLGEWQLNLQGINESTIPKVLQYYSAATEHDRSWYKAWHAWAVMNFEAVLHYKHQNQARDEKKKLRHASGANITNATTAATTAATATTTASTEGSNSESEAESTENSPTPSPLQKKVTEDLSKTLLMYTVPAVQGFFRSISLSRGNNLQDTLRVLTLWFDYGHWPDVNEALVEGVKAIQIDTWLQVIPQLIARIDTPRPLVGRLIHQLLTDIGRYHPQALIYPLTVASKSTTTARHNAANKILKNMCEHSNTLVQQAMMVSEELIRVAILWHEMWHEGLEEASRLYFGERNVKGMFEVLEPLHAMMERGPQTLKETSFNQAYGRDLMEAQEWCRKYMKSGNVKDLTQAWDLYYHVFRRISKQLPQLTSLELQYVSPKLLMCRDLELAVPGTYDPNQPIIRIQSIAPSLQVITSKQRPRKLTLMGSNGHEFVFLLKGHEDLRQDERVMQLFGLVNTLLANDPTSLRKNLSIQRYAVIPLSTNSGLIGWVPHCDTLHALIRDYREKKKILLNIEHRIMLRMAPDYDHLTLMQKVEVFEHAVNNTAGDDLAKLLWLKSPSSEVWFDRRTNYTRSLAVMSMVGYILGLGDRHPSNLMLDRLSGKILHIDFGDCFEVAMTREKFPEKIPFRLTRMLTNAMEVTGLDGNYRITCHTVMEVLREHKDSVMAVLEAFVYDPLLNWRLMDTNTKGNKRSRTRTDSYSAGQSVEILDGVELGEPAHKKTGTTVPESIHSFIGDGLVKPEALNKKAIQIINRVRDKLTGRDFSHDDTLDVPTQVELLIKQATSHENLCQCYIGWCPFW
Procedure, shortened: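 After a 30 min room-temperature kinase reaction, EDTA (10 mM final) and Tb-labelled phospho-Thr46 antibody (2 nM final) were added and incubated 60 min. Energy transfer from Tb to phosphorylated GFP-4EBP1 was read at 340 nm excitation, emissions 490/520 nm. Values derive from the 520/490 fluorescence ratio.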

Akt-pS473 in U87MG cells = conditions: Homo sapiens, U-87 MG, read-out: U87 Akt-pS473 % Inhibition or IC50, nM (IC50), U87MG cells
U87MG tumour cells = assay: Test of in vitro proliferation of U87MG tumour cells; format: cell-based; conditions: Homo sapiens, U-87 MG, 72 h, U87MG cells, 72 hours; read-out: U87 Cell Proliferation IC50
Description: Model 4: Test of in vitro Proliferation of U87MG Tumour Cells.
The cell growth is determined with the reagent CellTiter 96 AQueous One Solution Cell Proliferation Assay from Promega (Cat. No. G3581).

Chain of PI3Kα (p110α/p85α) (P42336 whole entry): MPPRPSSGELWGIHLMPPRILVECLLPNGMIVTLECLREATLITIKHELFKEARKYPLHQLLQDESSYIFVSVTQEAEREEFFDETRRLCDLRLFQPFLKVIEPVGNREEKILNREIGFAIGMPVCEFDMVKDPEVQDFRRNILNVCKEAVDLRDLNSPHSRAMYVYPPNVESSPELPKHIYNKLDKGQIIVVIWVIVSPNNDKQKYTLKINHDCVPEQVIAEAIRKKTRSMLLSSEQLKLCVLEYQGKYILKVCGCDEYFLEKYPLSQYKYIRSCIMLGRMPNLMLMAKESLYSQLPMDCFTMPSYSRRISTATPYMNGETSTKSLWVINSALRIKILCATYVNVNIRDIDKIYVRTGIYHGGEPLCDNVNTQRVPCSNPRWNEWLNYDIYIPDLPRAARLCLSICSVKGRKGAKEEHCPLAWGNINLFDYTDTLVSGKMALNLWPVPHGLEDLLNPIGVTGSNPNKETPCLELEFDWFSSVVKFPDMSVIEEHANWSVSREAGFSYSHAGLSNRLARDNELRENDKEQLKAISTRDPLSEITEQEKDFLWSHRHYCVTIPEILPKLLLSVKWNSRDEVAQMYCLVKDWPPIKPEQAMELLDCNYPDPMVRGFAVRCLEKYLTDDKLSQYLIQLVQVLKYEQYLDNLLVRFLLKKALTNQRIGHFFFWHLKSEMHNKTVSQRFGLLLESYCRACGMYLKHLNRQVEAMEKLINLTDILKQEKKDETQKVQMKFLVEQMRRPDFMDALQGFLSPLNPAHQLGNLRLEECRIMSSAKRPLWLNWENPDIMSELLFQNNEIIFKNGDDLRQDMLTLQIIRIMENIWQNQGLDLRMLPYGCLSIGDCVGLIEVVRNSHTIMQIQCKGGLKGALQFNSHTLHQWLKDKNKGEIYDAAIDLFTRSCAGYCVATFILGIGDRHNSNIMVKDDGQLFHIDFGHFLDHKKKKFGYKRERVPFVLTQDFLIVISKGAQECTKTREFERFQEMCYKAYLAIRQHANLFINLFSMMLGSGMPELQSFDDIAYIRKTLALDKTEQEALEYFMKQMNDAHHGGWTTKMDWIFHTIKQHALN
Chain of PI3Kα (p110α/p85α) (P27986 whole entry partner): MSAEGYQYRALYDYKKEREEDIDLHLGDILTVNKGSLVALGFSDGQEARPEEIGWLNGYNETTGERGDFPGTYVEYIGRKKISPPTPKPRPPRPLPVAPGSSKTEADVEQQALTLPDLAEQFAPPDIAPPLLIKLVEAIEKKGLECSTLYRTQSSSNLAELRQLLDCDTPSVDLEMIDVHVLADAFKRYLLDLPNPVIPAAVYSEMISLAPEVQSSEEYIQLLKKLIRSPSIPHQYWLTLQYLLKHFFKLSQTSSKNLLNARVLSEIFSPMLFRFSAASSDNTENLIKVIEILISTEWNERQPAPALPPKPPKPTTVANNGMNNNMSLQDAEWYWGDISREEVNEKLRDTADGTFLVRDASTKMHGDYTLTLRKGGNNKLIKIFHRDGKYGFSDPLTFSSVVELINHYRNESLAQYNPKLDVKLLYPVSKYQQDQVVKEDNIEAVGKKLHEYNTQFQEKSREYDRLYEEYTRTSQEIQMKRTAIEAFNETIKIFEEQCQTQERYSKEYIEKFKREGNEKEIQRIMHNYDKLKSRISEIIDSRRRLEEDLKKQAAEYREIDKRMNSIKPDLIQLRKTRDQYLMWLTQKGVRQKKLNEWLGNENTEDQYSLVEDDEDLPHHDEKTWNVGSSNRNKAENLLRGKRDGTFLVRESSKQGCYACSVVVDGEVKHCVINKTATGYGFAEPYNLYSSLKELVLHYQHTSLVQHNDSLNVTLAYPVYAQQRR

Compound | PI3Ka IC50 (PI3Kα (p110α/p85α)) | IC50 [1] | IC50 (Akt-pS473 in U87MG cells) | IC50 (U87MG tumour cells)
Cc1ccc(NC(=O)Nc2ccc(-c3nc(N4C5CCC4COC5)nc4c3C(=O)N(C)CC(C)(C)O4)cc2)nc1 [Example 48, 1-(5-Methylpyridin-2-yl)-3-{4-[6,8,8-trimethyl-2-(3-oxa-8-azabicyclo[3.2.1]oct-8-yl)-5-oxo-5,6,7,8-tetrahydro-9-oxa-1,3,6-triazabenzocyclohepten-4-yl]phenyl}urea] | >10000 nM | 47 nM | 86 nM | 185 nM
COc1ccc(NC(=O)Nc2ccc(-c3nc(N4C5CCC4COC5)nc4c3C(=O)N(C)CC(C)(C)O4)cc2)nc1 [Example 49, 1-(5-Methoxypyridin-2-yl)-3-{4-[6,8,8-trimethyl-2-(3-oxa-8-azabicyclo[3.2.1]oct-8-yl)-5-oxo-5,6,7,8-tetrahydro-9-oxa-1,3,6-triazabenzocyclohepten-4-yl]phenyl}urea] | >10000 nM | 32 nM | 21 nM | 155 nM
CCN1CC(C)(C)Oc2nc(N3C4CCC3COC4)nc(-c3ccc(NC(=O)Nc4cccnc4)c(F)c3)c2C1=O [Example 50, 1-{4-[6-Ethyl-8,8-dimethyl-2-(3-oxa-8-azabicyclo[3.2.1]oct-8-yl)-5-oxo-5,6,7,8-tetrahydro-9-oxa-1,3,6-triazabenzocyclohepten-4-yl]-2-fluorophenyl}-3-pyridin-3-ylurea] | 2870 nM | 39 nM | 7 nM | 40 nM
CCN1CC(C)(C)Oc2nc(N3C4CCC3COC4)nc(-c3ccc(NC(=O)Nc4ccncc4)c(F)c3)c2C1=O [Example 51, 1-{4-[6-Ethyl-8,8-dimethyl-2-(3-oxa-8-azabicyclo[3.2.1]oct-8-yl)-5-oxo-5,6,7,8-tetrahydro-9-oxa-1,3,6-triazabenzocyclohepten-4-yl]-2-fluorophenyl}-3-pyridin-4-ylurea] | 1900 nM | 20 nM | 14 nM | 12 nM
CCN1CC(C)(C)Oc2nc(N3CC4CCC(C3)O4)nc(-c3ccc(NC(=O)Nc4ccncc4)c(F)c3)c2C1=O [Example 52, 1-{4-[6-Ethyl-8,8-dimethyl-2-(8-oxa-3-azabicyclo[3.2.1]oct-3-yl)-5-oxo-5,6,7,8-tetrahydro-9-oxa-1,3,6-triazabenzocyclohepten-4-yl]-2-fluorophenyl}-3-pyridin-4-ylurea] | 1710 nM | 18 nM | 16 nM | 29 nM
CCN1CC(C)(C)Oc2nc(N3CCOC[C@@H]3C)nc(-c3ccc(NC(=O)O[C@H]4CCC[C@H]4O)cc3)c2C1=O [Example 53, {4-[6-Ethyl-8,8-dimethyl-2-((S)-3-methylmorpholin-4-yl)-5-oxo-5,6,7,8-tetrahydro-9-oxa-1,3,6-triazabenzocyclohepten-4-yl]phenyl}carbamic acid (1S,2R)-2-hydroxycyclopentyl ester] | >10000 nM | 222 nM | 555 nM | 2160 nM
COc1ccc(NC(=O)Nc2ccc(-c3nc(N4CC5CCC(C4)O5)nc4c3C(=O)N(C)CC(C)(C)O4)cc2)nc1 [Example 54, 1-(5-Methoxypyridin-2-yl)-3-{4-[6,8,8-trimethyl-2-(8-oxa-3-azabicyclo[3.2.1]oct-3-yl)-5-oxo-5,6,7,8-tetrahydro-9-oxa-1,3,6-triazabenzocyclohepten-4-yl]phenyl}urea] | 3000 nM | 32 nM | 41 nM | 161 nM
CCN1CC(C)(C)Oc2nc(N3C4CCC3COC4)nc(-c3ccc(NC(=O)Nc4ccnc(C)c4)c(F)c3)c2C1=O [Example 55, 1-{4-[6-Ethyl-8,8-dimethyl-2-(3-oxa-8-azabicyclo[3.2.1]oct-8-yl)-5-oxo-5,6,7,8-tetrahydro-9-oxa-1,3,6-triazabenzocyclohepten-4-yl]-2-fluorophenyl}-3-(2-methylpyridin-4-yl)urea] | 4810 nM | 66 nM | 27 nM | 54 nM
CCN1CC(C)(C)Oc2nc(N3CC4CCC(C3)O4)nc(-c3ccc(NC(=O)Nc4ccnc(C)c4)c(F)c3)c2C1=O [Example 56, 1-{4-[6-Ethyl-8,8-dimethyl-2-(8-oxa-3-azabicyclo[3.2.1]oct-3-yl)-5-oxo-5,6,7,8-tetrahydro-9-oxa-1,3,6-triazabenzocyclohepten-4-yl]-2-fluorophenyl}-3-(2-methylpyridin-4-yl)urea] | 3230 nM | 41 nM | 26 nM | 57 nM
CCN1CC(C)(C)Oc2nc(N3CC4CCC(C3)O4)nc(-c3ccc(NC(=O)Nc4cc(C)nc(C)c4)c(F)c3)c2C1=O [Example 58, 1-(2,6-Dimethylpyridin-4-yl)-3-{4-[6-ethyl-8,8-dimethyl-2-(8-oxa-3-azabicyclo[3.2.1]oct-3-yl)-5-oxo-5,6,7,8-tetrahydro-9-oxa-1,3,6-triazabenzocyclohepten-4-yl]-2-fluorophenyl}urea] | 9470 nM | 28 nM | 20 nM | 71 nM
Cc1cc(NC(=O)Nc2ccc(-c3nc(N4C5CCC4COC5)nc4c3C(=O)N(C)CC(C)(C)O4)cc2F)ccn1 [Example 59, 1-{2-Fluoro-4-[6,8,8-trimethyl-2-(3-oxa-8-azabicyclo[3.2.1]oct-8-yl)-5-oxo-5,6,7,8-tetrahydro-9-oxa-1,3,6-triazabenzocyclohepten-4-yl]phenyl}-3-(2-methylpyridin-4-yl)urea] | 4200 nM | 67 nM | 36 nM | 42 nM
CCN1CC(C)(C)Oc2nc(N3CC4CCC(C3)O4)nc(-c3ccc(NC(=O)O[C@H](C)CO)c(F)c3)c2C1=O [Example 62, {4-[6-Ethyl-8,8-dimethyl-2-(8-oxa-3-azabicyclo[3.2.1]oct-3-yl)-5-oxo-5,6,7,8-tetrahydro-9-oxa-1,3,6-triazabenzocyclohepten-4-yl]-2-fluorophenyl}carbamic acid (R)-2-hydroxy-1-methylethyl ester] | >10000 nM | 667 nM | > 1000 nM | > 10000 nM
CCN1CC(C)(C)Oc2nc(N3C4CCC3COC4)nc(-c3ccc(NC(=O)Nc4ccccn4)cc3)c2C1=O [Example 63, 1-{4-[6-Ethyl-8,8-dimethyl-2-(3-oxa-8-azabicyclo[3.2.1]oct-8-yl)-5-oxo-5,6,7,8-tetrahydro-9-oxa-1,3,6-triazabenzocyclohepten-4-yl]phenyl}-3-pyridin-2-ylurea] | >10000 nM | 31 nM | 31 nM | 190 nM
CCN1CC(C)(C)Oc2nc(N3CC4CCC(C3)O4)nc(-c3ccc(NC(=O)Nc4ccc(N(C)C)cn4)cc3)c2C1=O [Example 64, 1-(5-Dimethylaminopyridin-2-yl)-3-{4-[6-ethyl-8,8-dimethyl-2-(8-oxa-3-azabicyclo[3.2.1]oct-3-yl)-5-oxo-5,6,7,8-tetrahydro-9-oxa-1,3,6-triazabenzocyclohepten-4-yl]phenyl}urea] | >10000 nM | 24 nM | 37 nM | 270 nM
CCN1CC(C)(C)Oc2nc(N3C4CCC3COC4)nc(-c3ccc(NC(=O)OCCO)cc3)c2C1=O [Example 65, {4-[6-Ethyl-8,8-dimethyl-2-(3-oxa-8-azabicyclo[3.2.1]oct-8-yl)-5-oxo-5,6,7,8-tetrahydro-9-oxa-1,3,6-triazabenzocyclohepten-4-yl]phenyl}carbamic acid 2-hydroxyethyl ester] | 22400 nM | 27 nM | 27 nM | 257 nM
